Assay results published in patent US20240139326A1, “METHACRYLAMIDES PROTEIN BINDERS AND USES THEREOF” (YEDA RESEARCH AND DEVELOPMENT CO. LTD., priority 2020, published 2024).
Like-named read-outs stand apart in the source and are kept apart here.

What was measured:
physchem = settings: 5 mM GSH in potassium phosphate buffer, pH 8
Mino cells = test: In-gel fluorescence proteomic reactivity of alkyne probes; type: cell-based; settings: Mino cells treated 2 h, clicked with TAMRA-azide
Method: The samples were incubated at 25 degrees for 2 hours.
Mino cells were treated for two hours with either DMSO, IA-alkyne, or 2a-c. The cells were lysed, labeled the alkynes via copper-catalyzed “click chemistry” with TAMRA (Tetramethylrhodamine)-azide, and imaged the adducts via in-gel fluorescence (FIG. 8B). […] This may be the result of cellular esterases that hydrolyze the ester, leaving an unreactive substituted acrylamide^26. All of the acrylamides were markedly less reactive than IA-alkyne.

BTK kinase domain [1] = target: T1, BTK kinase domain (Homo sapiens (Human), UniProt Q06187)
Method: (§2) The reaction mixtures, at room temperature for various times, were injected into the LC/MS. For data analysis, the raw spectra were deconvoluted using a 20000:40000 Da window and 1 Da resolution. The signal from masses 20000:30000 and 33000:40000 (which contained no peaks) was averaged and subtracted from the whole signal.

wild-type BTK = wild-type BTK (Homo sapiens (Human), UniProt Q06187); test: In vitro kinase activity assay for BTK (Nanosyn); type: biochemical
Method: The reaction was initiated by 2-fold dilution into a solution containing 5 μM ATP and substrate.

BTK kinase domain [2] = target: T1, BTK kinase domain; test: Kinetic labeling experiments of Ibrutinib derivatives with BTK (intact protein LC/MS); settings: for BTK Substitution/Addition: mechanism of BTK labeling; for labeling of BTK through the substitution mechanism: within 30 minutes
Method: as §2

BTK [3] = target: T2, BTK (Homo sapiens (Human), UniProt Q06187); test: Fluorescence intensity measurement of CoLDR turn-on probe with BTK; type: binding; settings: 2 μM probe, 2 μM BTK
Method: (§1) Each condition was in triplicates in 20 mM Tris pH 8 50 mM NaCl for BTK and K-RAS^G12c, in 50 mM Tris pH 8.0, 100 mM NaCl for EGFR. fluorescent measurements were taken every 2 minutes for 2 hours for BTK and EGFR and every 10 minutes for 15 hours for K-RAS^G12c. […] K-Ras^G12C was expressed and purified as previously described^66, EGFR kinase domain was a generous gift from Prof. Michael Eck.
The fact that a specific leaving group is released as a function of selective binding of a target protein can be used to functionalize irreversible inhibitors, for example as turn-on fluorescent probes. To assess the applicability and generality of this approach three therapeutic targets were chosen for which acrylamide inhibitors are available: BTK, EGFR, and K-RAS^G12C as model systems. […] The rate of the reaction was […] by using 20:1 equivalents of protein:probe (FIG. 12). […] The release can also be inhibited by pre-incubation of BTK with Iodoacetamide alkyne (IAA; FIG. 13B).

BSA = BSA (Bos taurus (Bovine), UniProt P02769); test: Turn-on fluorescence selectivity control with BSA; type: binding; settings: 10 μM BSA with 2 μM 3j
BTK [4] = target: T2, BTK; test: Turn-on chemiluminescence of probe 3k with BTK; type: binding
Method: Plate reader measurements were performed on Tecan Spark Control 10M fluorescent measurements using black 384 well plates with clear bottom.
Recently, adamantylidene-dioxetane based chemiluminescent turn-on probes for the sensing and imaging of enzymes, reactive oxygen species, and other analytes were reported^28-32 These probes, upon activation by analytes, release a phenolate-dioxetane intermediate which subsequently decomposes with the emission of a photon in the visible spectrum (FIG. 3). […] The chemiluminescence light emission profile of probe 3k (FIG. 15A, Example 1) upon activation with BTK (2 μM) was measured in the absence and presence of BTK (FIG. 15B). The kinetic profile in the presence of BTK was typical of a chemiluminescent probe with an initial signal was increased to a maximum within 20 minutes, followed by a slow decrease.

EGFR [5] = target: T3, EGFR (Homo sapiens (Human), UniProt P00533); test: Fluorescence intensity measurement of CoLDR turn-on probe with EGFR; type: binding; settings: 2 μM each
Method: as §1
Similarly, 4b (FIG. 11B, Example 1; afatinib derivative functionalized with coumarin) and 5a (FIG. 11C, Example 1; AMG-510 derivative functionalized with coumarin) were treated with EGFR and K-RAS^G12c respectively and measured the released coumarin fluorescence (FIG. 11E, 11F).

EGFR [6] = target: T3, EGFR; test: EGFR kinase activity assay; type: biochemical; settings: read-out: IC50 against EGFR
BTK kinase domain [7] = target: T1, BTK kinase domain; test: Labeling experiments of Ibrutinib derivatives with BTK (ligand release, LC/MS); type: binding; settings: BTK 2 μM, 10 min, 25° C., pH 8
Method: Binding experiments were performed in Tris 20 mM pH 8.0, 50 mM NaCl at room temperature. […] The reaction mixtures, at room temperature for various times, were injected into the LC/MS. For data analysis, the raw spectra were deconvoluted using a 20000:40000 Da window and 1 Da resolution. The labeling percentage for a compound was determined as the labeling of a specific compound (alone or together with other compounds) divided by the overall detected protein species.
To assess irreversible labeling and validate the proposed ligand release mechanism, the probes/compounds (2 μM) were incubated with recombinant BTK (2 μM) and monitored the reaction via intact protein liquid chromatography/mass spectrometry (LC/MS).

[8] = target: SARS-CoV-2 papain like protease (PL^pro) (Severe acute respiratory syndrome coronavirus 2 (2019-nCoV) (SARS-CoV-2), UniProt P0DTD1); test: Labeling of PLpro (LC/MS); type: binding; settings: 2 μM protein, 16h, pH 8
BTK [9] = target: T2, BTK; test: Fluorescence intensity measurements of labeling probes with BTK; settings: 4 μM competitor

wild-type BTK, sequence (Q06187 whole entry, the tested form may be a part): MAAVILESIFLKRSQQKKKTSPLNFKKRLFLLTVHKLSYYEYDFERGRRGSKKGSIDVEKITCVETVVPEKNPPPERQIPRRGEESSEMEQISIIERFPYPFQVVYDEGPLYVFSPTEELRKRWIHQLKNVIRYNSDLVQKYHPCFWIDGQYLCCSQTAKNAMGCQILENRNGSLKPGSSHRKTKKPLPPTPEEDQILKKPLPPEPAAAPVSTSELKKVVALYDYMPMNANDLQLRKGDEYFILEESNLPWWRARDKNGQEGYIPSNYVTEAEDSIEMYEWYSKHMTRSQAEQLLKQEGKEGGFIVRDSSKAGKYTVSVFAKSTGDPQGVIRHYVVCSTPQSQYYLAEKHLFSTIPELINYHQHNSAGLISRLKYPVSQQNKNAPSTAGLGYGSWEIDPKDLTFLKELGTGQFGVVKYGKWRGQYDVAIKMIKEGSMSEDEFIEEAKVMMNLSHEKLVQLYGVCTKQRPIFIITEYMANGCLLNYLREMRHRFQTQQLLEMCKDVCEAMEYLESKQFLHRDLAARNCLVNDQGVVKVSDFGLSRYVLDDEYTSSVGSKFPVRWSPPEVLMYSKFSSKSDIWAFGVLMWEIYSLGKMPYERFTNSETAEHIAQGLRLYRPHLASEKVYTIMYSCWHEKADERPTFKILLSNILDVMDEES
T2 sequence (Q06187 2-659 limits assumed): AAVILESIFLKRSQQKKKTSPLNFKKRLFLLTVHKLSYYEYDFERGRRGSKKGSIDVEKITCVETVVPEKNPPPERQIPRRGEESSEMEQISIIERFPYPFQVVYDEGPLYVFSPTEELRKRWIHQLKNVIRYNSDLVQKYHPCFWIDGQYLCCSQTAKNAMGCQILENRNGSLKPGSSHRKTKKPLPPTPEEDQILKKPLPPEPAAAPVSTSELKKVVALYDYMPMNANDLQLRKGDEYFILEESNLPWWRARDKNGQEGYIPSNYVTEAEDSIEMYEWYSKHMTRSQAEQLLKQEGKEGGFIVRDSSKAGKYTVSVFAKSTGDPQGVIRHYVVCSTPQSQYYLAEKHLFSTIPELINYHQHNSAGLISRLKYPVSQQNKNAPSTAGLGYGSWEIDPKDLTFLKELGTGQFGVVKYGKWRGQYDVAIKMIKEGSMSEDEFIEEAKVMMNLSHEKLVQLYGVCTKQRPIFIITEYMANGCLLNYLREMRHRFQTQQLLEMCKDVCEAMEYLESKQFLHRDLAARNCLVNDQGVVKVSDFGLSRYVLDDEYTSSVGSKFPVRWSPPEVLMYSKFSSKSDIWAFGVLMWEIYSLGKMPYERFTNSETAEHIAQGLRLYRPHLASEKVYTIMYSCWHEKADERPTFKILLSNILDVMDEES
T1 sequence (Q06187 402-655): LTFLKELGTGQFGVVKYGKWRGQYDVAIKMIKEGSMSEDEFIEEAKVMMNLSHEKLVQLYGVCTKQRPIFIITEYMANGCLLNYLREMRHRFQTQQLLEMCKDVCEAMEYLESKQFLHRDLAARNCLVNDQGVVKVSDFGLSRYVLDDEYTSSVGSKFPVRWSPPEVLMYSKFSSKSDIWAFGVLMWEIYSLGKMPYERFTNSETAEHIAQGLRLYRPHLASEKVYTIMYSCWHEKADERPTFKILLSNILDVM
T3 sequence (P00533 25-1210 limits assumed): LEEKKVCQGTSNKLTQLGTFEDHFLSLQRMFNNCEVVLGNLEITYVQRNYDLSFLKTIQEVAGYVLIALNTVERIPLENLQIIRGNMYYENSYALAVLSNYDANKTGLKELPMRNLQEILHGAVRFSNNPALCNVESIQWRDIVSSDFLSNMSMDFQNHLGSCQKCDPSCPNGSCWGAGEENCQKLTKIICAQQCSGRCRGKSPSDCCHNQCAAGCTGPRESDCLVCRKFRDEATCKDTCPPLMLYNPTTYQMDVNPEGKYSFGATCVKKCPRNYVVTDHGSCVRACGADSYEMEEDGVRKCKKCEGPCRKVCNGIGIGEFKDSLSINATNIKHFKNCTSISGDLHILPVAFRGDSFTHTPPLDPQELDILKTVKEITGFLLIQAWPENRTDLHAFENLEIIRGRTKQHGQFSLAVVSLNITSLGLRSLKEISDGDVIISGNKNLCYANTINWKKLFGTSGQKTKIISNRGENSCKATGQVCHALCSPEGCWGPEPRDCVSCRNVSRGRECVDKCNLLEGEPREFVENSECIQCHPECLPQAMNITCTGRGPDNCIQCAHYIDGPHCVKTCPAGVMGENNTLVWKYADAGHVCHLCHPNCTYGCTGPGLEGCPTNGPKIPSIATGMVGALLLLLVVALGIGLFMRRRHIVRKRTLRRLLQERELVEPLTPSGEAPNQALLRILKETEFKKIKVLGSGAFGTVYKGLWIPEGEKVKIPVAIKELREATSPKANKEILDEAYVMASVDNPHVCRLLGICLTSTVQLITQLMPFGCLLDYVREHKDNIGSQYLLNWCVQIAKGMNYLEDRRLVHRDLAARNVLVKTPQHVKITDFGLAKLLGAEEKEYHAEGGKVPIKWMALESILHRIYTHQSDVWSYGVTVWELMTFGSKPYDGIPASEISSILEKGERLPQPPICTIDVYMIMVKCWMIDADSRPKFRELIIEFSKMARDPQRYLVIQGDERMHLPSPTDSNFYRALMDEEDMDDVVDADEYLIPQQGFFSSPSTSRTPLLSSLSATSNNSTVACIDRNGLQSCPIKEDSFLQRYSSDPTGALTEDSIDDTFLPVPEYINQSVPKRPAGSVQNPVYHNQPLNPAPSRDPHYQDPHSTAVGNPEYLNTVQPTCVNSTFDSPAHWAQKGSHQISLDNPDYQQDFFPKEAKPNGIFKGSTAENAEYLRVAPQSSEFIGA
BSA, sequence (P02769 25-607 limits assumed): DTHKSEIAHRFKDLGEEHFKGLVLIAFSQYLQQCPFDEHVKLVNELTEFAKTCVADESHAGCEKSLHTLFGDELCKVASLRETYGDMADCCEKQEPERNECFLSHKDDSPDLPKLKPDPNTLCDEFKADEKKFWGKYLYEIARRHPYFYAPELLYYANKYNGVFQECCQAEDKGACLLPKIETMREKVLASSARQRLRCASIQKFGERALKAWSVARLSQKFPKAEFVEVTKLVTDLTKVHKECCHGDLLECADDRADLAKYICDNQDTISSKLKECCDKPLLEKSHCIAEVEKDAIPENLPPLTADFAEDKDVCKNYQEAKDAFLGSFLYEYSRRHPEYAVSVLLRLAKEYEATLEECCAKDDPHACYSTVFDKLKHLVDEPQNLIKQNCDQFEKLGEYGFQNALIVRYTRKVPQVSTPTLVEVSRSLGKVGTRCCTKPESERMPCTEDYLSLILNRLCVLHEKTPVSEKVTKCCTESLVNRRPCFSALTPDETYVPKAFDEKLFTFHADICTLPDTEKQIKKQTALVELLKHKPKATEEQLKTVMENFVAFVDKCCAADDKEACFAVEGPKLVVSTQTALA

C=C(COC(=O)Oc1ccc([N+](=O)[O-])cc1)C(=O)NCc1ccccc1 [Compound 1j, 2-(benzylcarbamoyl)allyl (4-nitrophenyl) carbonate]
half-life at 100 μM (physchem): 54 min

C#CCCNC(=O)C(=C)COc1ccc2ccc(=O)oc2c1 [Compound 2a, N-(but-3-yn-1-yl)-2-(((2-oxo-2H-chromen-7-yl)oxy)methyl)acrylamide]
proteomic reactivity (in-gel fluorescence) (Mino cells): slightly higher reactivity than 2b

C#CCCNC(=O)C(=C)COC(=O)c1ccccc1 [Compound 2c, 2-(but-3-yn-1-ylcarbamoyl)allyl benzoate]
proteomic reactivity (in-gel fluorescence) (Mino cells): completely inactive

C=C(C)C(=O)N1CCC[C@@H](n2nc(-c3ccc(Oc4ccccc4)cc3)c3c(N)ncnc32)C1 [Compound 3a, (R)-1-(3-(4-amino-3-(4-phenoxyphenyl)-1H-pyrazolo[3,4-d]pyrimidin-1-yl)piperidin-1-yl)-2-methylprop-2-en-1-one]
BHK t1/2 (BTK kinase domain [1]): >420 min

C=C(CN1CCCCC1)C(=O)N1CCC[C@@H](n2nc(-c3ccc(Oc4ccccc4)cc3)c3c(N)ncnc32)C1 [Compound 3c, (R)-1-(3-(4-amino-3-(4-phenoxyphenyl)-1H-pyrazolo[3,4-d]pyrimidin-1-yl)piperidin-1-yl)-2-(piperidin-1-ylmethyl)prop-2-en-1-one]
IC50 (wild-type BTK; 0.6 nM BTK, 5 μM ATP): 0.0001 µM | IC50 (wild-type BTK; unit μM): < 100 µM | BTK Substitution/Addition (BTK kinase domain [2]): exclusively through addition

C=C(CN(C)c1ccccc1)C(=O)N1CCC[C@@H](n2nc(-c3ccc(Oc4ccccc4)cc3)c3c(N)ncnc32)C1 [Compound 3d, (R)-1-(3-(4-amino-3-(4-phenoxyphenyl)-1H-pyrazolo[3,4-d]pyrimidin-1-yl)piperidin-1-yl)-2-((methyl(phenyl)amino)methyl)prop-2-en-1-one]
IC50 (wild-type BTK; 0.6 nM BTK, 5 μM ATP): 0.0056 µM | BHK t1/2 (BTK kinase domain [2]; BTK labeling, 2 μM compound and 2 μM BTK at room temperature): 47 min | BTK Substitution/Addition (BTK kinase domain [2]): Substitution | labeling of BTK through the substitution mechanism (BTK kinase domain [2]): 100%

C=C(CNCc1ccccc1)C(=O)N1CCC[C@@H](n2nc(-c3ccc(Oc4ccccc4)cc3)c3c(N)ncnc32)C1 [Compound 3e, (R)-1-(3-(4-amino-3-(4-phenoxyphenyl)-1H-pyrazolo[3,4-d]pyrimidin-1-yl)piperidin-1-yl)-2-((benzylamino)methyl)prop-2-en-1-one]
IC50 (wild-type BTK; 0.6 nM BTK, 5 μM ATP): 0.0001 µM | IC50 (wild-type BTK; unit μM): < 100 µM | BHK t1/2 (BTK kinase domain [1]; recombinant enzyme): <5 min | BTK Substitution/Addition (BTK kinase domain [2]): exclusively through addition | BTK labeling t1/2 faster than Ibrutinib (BTK kinase domain [2]; relative to Ibrutinib): 50%

C=C(COC(C)=O)C(=O)N1CCC[C@@H](n2nc(-c3ccc(Oc4ccccc4)cc3)c3c(N)ncnc32)C1 [Compound 3g, (R)-2-(3-(4-amino-3-(4-phenoxyphenyl)-1H-pyrazolo[3,4-d]pyrimidin-1-yl)piperidine-1-carbonyl)allyl acetate]
IC50 (wild-type BTK; 0.6 nM BTK, 5 μM ATP): 0.0001 µM | IC50 (wild-type BTK; unit μM): < 100 µM | BTK Substitution/Addition (BTK kinase domain [2]): Substitution | labeling of BTK through the substitution mechanism (BTK kinase domain [2]): 100%

C=C(COc1ccc2ccc(=O)oc2c1)C(=O)N1CCC[C@@H](n2nc(-c3ccc(Oc4ccccc4)cc3)c3c(N)ncnc32)C1 [Compound 3j, (R)-7-((2-(3-(4-amino-3-(4-phenoxyphenyl)-1H-pyrazolo[3,4-d]pyrimidin-1-yl)piperidine-1-carbonyl)allyl)oxy)-2H-chromen-2-one]
increase of fluorescence intensity at 435 nm upon addition of BTK (BTK [3]): 30 fold | time to fluorescence saturation (BTK [3]): ≤ 10 min | fluorescence on incubation with BSA (BSA): did not result in increased fluorescence | labeling of BTK through the substitution mechanism (BTK kinase domain [2]): 100%

C=C(COc1c(Cl)cc(C2(OC)OOC23[C@H]2C[C@@H]4C[C@@H](C[C@H]3C4)C2)cc1/C=C/C(=O)OC)C(=O)N1CCC[C@@H](n2nc(-c3ccc(Oc4ccccc4)cc3)c3c(N)ncnc32)C1 (stereo partly drawn) [Compound 3k, Methyl (E)-3-(2-((2-((R)-3-(4-amino-3-(4-phenoxyphenyl)-1H-pyrazolo[3,4-d]pyrimidin-1-yl)piperidine-1-carbonyl)allyl)oxy)-3-chloro-5-((1r,3r,5R,7R)-4′-methoxyspiro[adamantane-2,3′-[1,2]dioxetan]-4′-yl)phenyl)acrylate]
time to maximum chemiluminescence signal (BTK [4]; BTK 2 μM): ≤ 20 min

C=C(COc1ccc2ccc(=O)oc2c1)C(=O)Nc1cc2c(Nc3ccc(F)c(Cl)c3)ncnc2cc1OC [Compound 4b, N-(4-((3-chloro-4-fluorophenyl)amino)-7-methoxyquinazolin-6-yl)-2-(((2-oxo-2H-chromen-7-yl)oxy)methyl)acrylamide]
released coumarin fluorescence with EGFR (EGFR [5]): significant increase in fluorescence intensity | IC50 (EGFR [6]): 3.3 nM

C#CCCNC(=O)C(=C)CN1CCC(CNc2ncnc(N)c2-c2ccc(Oc3ccccc3)cc2)CC1 [Compound 7g]
single labeling of BTK (BTK kinase domain [7]): 100%

C=C(COC(=O)c1cc(OC)c(OC)c(OC)c1)C(=O)OCC [Compound 7t]
single labeling of PL^pro [8]: 100%

Nc1ncnc2c1c(-c1ccc(Oc3ccccc3)cc1)nn2[C@@H]1CCCNC1 [Ibr-H, reference compound]
3k luminescence after pre-incubation of BTK with competitor (BTK [4]; 2 μM, 0.5 h pre-incubation): significant decrease in the luminescence detected | 7m turn-on fluorescence after pre-incubation of BTK with competitor (BTK [9]): eliminated the fluorescence
